Numbers after ± are expanded uncertainties.
Test: xn = mol fraction of the nth substance listed
Conditions: 101 kPa, Liquid, Vibrating tube method, x1 = 1

mass density (323.15 K): 988.02 ± 0.2 kg/m3 | mass density (328.15 K): 985.68 ± 0.21 kg/m3 | mass density (333.15 K): 983.17 ± 0.21 kg/m3
Structure (SMILES): O [water] + C1CCOC1
